Results on twelve compounds are retold here after ChEMBL document CHEMBL1127000, “Synthesis and excitatory amino acid pharmacology of some novel quinoxalinediones” (Bioorg Med Chem Lett, 1993).

The target of assay [1] is Glutamate receptor ionotropic, AMPA (Rattus norvegicus, UniProt P19490+P19491+P19492+P19493).
Assay [2] addresses Glutamate receptor ionotropic, NMDA 1 (Rattus norvegicus) (UniProt P35439). The experiment in a line: Binding affinity for glycine site-NMDA receptor was determined by the ability to displace [3H]glycine in rat cortical membranes at 10 uM. It counts as cell membranes.
Assay [3] concerns the target Glutamate receptor ionotropic, AMPA (Rattus norvegicus) (UniProt P19491+P19492+P19493+P19490). The experiment in a line: Binding affinity for Ionotropic glutamate receptor AMPA was determined by the ability to displace [3H]AMPA in rat cortical membranes at 10 uM. The format is cell membranes.
Assay [4] addresses Glutamate receptor ionotropic, NMDA 1 (Rattus norvegicus) (UniProt P35439). The experiment in a line: Tested for the ability to displace [3H]glycine in rat cortical membranes at a concentration of 10 uM. The format is cell membranes.
Assay [5] deals with Glutamate receptor ionotropic, NMDA 1 (Rattus norvegicus, UniProt P35439). The experiment in a line: Binding affinity for glycine site-NMDA receptor was determined by the ability to displace [3H]glycine in rat cortical membranes. The format is cell membranes.

For orientation: Ki means a dissociation constant, usually derived from enzyme kinetics or from competition with a known ligand. Read a high Ki as lower affinity. Regarding `Cc1cc2[nH]c(=O)c(=O)n(CCCC(=O)O)c2cc1C`, the affinity in assay [1], expressed as Ki, was 8000 nM. For the same compound, the Displacement in assay [2] came out at 29.6%.

Take `Cc1ccc(S(=O)(=O)NC(=O)Cn2c(=O)c(=O)[nH]c3cc(C)c(C)cc32)cc1`: the values for the Displacement in assay [3] and in assay [2] were 28% and 48%, respectively.

For `COC(=O)Cn1c(=O)cnc2cc(C)c(C)cc21`, the Displacement in assay [3] worked out at 4.6%; in assay [4], 8%.

`Cc1cc2[nH]c(=O)c(=O)n(Cc3nn[nH]n3)c2cc1C`: the figures for the Displacement in assay [3] and in assay [2] were 52.4% and 49.6%, respectively.

For the compound `Cc1cc2[nH]c(=O)c(=O)n(CC(=O)O)c2cc1C`, the Ki in assay [5] was determined as 13800 nM; in assay [1], 700 nM.

For the compound `O=C(O)Cn1c(=O)c(=O)[nH]c2cc(Cl)c(Cl)cc21`, the Ki amounted to 110 nM in assay [5] and 2100 nM in assay [1].

As to `O=c1[nH]c2cc(Cl)c(Cl)cc2n(Cc2nn[nH]n2)c1=O`, the results for the Displacement in assay [3] and in assay [2] were 58.6% and 58.8%, respectively.

As to `Cc1cc2[nH]c(=O)c(=O)n(CC(=O)NS(C)(=O)=O)c2cc1C`, the Displacement in assay [3] was found to be 49%; in assay [2] it was 36%.

As for `Cc1cc2[nH]c(=O)c(=O)n(CC(=O)Nc3ccccc3)c2cc1C`, the Displacement in assay [3] is 5.2%; in assay [4], 2.9%.

Regarding `Cc1cc2[nH]c(=O)c(=O)n(CCC(=O)O)c2cc1C`, the Displacement was 28.5% in assay [3] and 58.2% in assay [2].

Turning to `Cc1cc2[nH]c(=O)c(=O)n(C(C)C(=O)O)c2cc1C` (centres undefined), the Displacement was found to be 13.9% in assay [3] and 2.6% in assay [2].

Take `Cc1cc2[nH]c(=O)c(=O)n(CP(=O)(O)O)c2cc1C`: the results for the inhibitory constant (Ki) in assay [5] and in assay [1] were 5280 nM and 1210 nM, respectively.
